ChEMBL document CHEMBL6127065, “Design and Synthesis of c-Met and HDAC Dual Inhibitors for the Treatment of Breast Cancer” (ACS Med Chem Lett, 2024)
Blank lines part the entries; values can stand above or below the compound they belong to.

Columns and labels:
[1] = test system: MDA-MB-468; experiment: Antiproliferative activity against human MDA-MB-468 cells assessed as reduction in cell growth incubated for 72 hrs by MTT assay; settings: MDA-MB-468, 72 h
[2] = test system: MDA-MB-231; experiment: Antiproliferative activity against human MDA-MB-231 cells assessed as reduction in cell growth incubated for 72 hrs by MTT assay; settings: MDA-MB-231, 72 h
[3] = test system: MDA-MB-453; experiment: Antiproliferative activity against human MDA-MB-453 cells assessed as reduction in cell growth incubated for 72 hrs by MTT assay; settings: MDA-MB-453, 72 h
[4] = target: T1, Protein deacetylase HDAC6 (Homo sapiens) (UniProt Q9UBN7); settings: dose 1000.0 nM, time 60.0 min
T1 sequence (whole entry): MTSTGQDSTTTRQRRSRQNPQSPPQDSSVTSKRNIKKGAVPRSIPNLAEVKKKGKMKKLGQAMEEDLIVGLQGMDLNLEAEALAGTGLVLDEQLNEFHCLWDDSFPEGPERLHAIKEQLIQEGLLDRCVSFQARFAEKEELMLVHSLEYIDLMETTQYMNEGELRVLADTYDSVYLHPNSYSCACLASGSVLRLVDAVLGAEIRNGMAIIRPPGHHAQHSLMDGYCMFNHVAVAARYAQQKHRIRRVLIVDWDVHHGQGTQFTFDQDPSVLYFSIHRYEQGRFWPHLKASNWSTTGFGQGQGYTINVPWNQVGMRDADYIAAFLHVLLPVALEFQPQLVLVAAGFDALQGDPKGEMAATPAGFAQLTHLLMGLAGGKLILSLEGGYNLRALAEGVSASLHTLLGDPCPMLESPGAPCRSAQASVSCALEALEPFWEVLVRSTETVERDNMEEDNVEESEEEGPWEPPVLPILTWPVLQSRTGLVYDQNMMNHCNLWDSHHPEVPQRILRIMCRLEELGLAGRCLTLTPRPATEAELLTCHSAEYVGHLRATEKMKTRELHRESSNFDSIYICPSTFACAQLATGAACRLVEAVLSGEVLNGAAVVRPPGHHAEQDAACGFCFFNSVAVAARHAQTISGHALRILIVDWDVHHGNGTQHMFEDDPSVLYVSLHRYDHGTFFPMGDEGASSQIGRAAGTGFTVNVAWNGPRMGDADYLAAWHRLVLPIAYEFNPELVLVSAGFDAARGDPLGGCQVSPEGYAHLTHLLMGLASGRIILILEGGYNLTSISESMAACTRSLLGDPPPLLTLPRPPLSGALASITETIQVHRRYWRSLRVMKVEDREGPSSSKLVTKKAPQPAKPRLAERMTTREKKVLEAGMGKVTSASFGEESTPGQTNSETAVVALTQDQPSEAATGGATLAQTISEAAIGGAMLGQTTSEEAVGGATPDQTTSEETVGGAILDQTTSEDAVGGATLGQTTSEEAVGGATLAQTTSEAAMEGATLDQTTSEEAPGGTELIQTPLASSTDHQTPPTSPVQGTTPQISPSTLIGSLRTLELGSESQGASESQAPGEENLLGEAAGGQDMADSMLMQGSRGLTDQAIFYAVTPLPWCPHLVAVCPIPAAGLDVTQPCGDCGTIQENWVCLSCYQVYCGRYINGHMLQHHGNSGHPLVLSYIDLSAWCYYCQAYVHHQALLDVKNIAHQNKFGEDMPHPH

[5] = target: Hepatocyte growth factor receptor (Homo sapiens, UniProt P08581); experiment: Inhibition of c-Met (unknown origin) using Poly(Glu:Tyr)(4:1) and ATP as substrate incubated for 45 mins by Kinase-Glo Max reagent based luminescence analysis
[6] = test system: MDA-MB-231; experiment: Induction of apoptosis in human MDA-MB-231 cells assessed as necrotic cells at 10 uM incubated for 48 hrs by AnnexinV-FITC/PI staining based flow cytometry (reference value: 1.79 to 2.53%); format: functional
[7] = test system: MDA-MB-231; experiment: Induction of apoptosis in human MDA-MB-231 cells assessed as viable cells at 10 uM incubated for 48 hrs by AnnexinV-FITC/PI staining based flow cytometry (reference value: 91.22 to 92.84%); format: functional; settings: read-out: Activity
[8] = test system: MDA-MB-231; experiment: Induction of apoptosis in human MDA-MB-231 cells assessed as late apoptotic cells at 5 uM incubated for 48 hrs by AnnexinV-FITC/PI staining based flow cytometry (reference value: 3.77 to 3.84%); format: functional
[9] = test system: MDA-MB-231; experiment: Induction of apoptosis in human MDA-MB-231 cells assessed as necrotic cells at 5 uM incubated for 48 hrs by AnnexinV-FITC/PI staining based flow cytometry (reference value: 1.79 to 2.53%); format: functional
[10] = test system: MDA-MB-231; experiment: Induction of cell cycle arrest in human MDA-MB-231 cells assessed as accumulation of cells at G2/M phase at 10 uM incubated for 48 hrs by PI staining based flow cytometry (reference value: 29.42 to 32.08%); format: functional
[11] = test system: MDA-MB-231; experiment: Induction of cell cycle arrest in human MDA-MB-231 cells assessed as accumulation of cells at S phase at 25 uM incubated for 48 hrs by PI staining based flow cytometry (reference value: 12.56 to 14.76%); format: functional
[12] = test system: MDA-MB-231; experiment: Induction of apoptosis in human MDA-MB-231 cells assessed as late apoptotic cells at 2.5 uM incubated for 48 hrs by AnnexinV-FITC/PI staining based flow cytometry (reference value: 3.77 to 3.84%); format: functional
[13] = Cytotoxicity against human MCF-10A cells assessed as reduction in cell viability incubated for 72 hrs by MTT assay; format: toxicity, cell-based
[14] = test system: MDA-MB-231; experiment: Induction of apoptosis in human MDA-MB-231 cells assessed as necrotic cells at […] uM incubated for 48 hrs by AnnexinV-FITC/PI staining based flow cytometry (reference value: 1.79 to 2.53%); format: functional; settings: 1.25 µM
[15] = test system: MDA-MB-231; experiment: Induction of apoptosis in human MDA-MB-231 cells assessed as early apoptotic cells at 5 uM incubated for 48 hrs by AnnexinV-FITC/PI staining based flow cytometry (reference value: 1.6 to 2.41%); format: functional
[16] = test system: MDA-MB-231; experiment: Induction of apoptosis in human MDA-MB-231 cells assessed as viable cells at 2.5 uM incubated for 48 hrs by AnnexinV-FITC/PI staining based flow cytometry (reference value: 91.22 to 92.84%); format: functional; settings: read-out: Activity
[17] = test system: MDA-MB-231; experiment: Induction of apoptosis in human MDA-MB-231 cells assessed as late apoptotic cells at […] uM incubated for 48 hrs by AnnexinV-FITC/PI staining based flow cytometry (reference value: 3.77 to 3.84%); format: functional; settings: 1.25 µM
[18] = test system: MDA-MB-231; experiment: Induction of apoptosis in human MDA-MB-231 cells assessed as early apoptotic cells at 2.5 uM incubated for 48 hrs by AnnexinV-FITC/PI staining based flow cytometry (reference value: 1.6 to 2.41%); format: functional
[19] = test system: MDA-MB-231; experiment: Induction of cell cycle arrest in human MDA-MB-231 cells assessed as accumulation of cells at G0/G1 phase at 1 uM incubated for 48 hrs by PI staining based flow cytometry (reference value: 55.36 to 55.82%); format: functional
[20] = test system: MDA-MB-231; experiment: Induction of apoptosis in human MDA-MB-231 cells assessed as necrotic cells at 2.5 uM incubated for 48 hrs by AnnexinV-FITC/PI staining based flow cytometry (reference value: 1.79 to 2.53%); format: functional
[21] = test system: MDA-MB-231; experiment: Induction of apoptosis in human MDA-MB-231 cells assessed as early apoptotic cells at 10 uM incubated for 48 hrs by AnnexinV-FITC/PI staining based flow cytometry (reference value: 1.6 to 2.41%); format: functional
[22] = test system: MDA-MB-231; experiment: Induction of apoptosis in human MDA-MB-231 cells assessed as early apoptotic cells at […] uM incubated for 48 hrs by AnnexinV-FITC/PI staining based flow cytometry (reference value: 1.6 to 2.41%); format: functional; settings: 1.25 µM
[23] = test system: MDA-MB-231; experiment: Induction of cell cycle arrest in human MDA-MB-231 cells assessed as accumulation of cells at G0/G1 phase at 10 uM incubated for 48 hrs by PI staining based flow cytometry (reference value: 55.36 to 55.82%); format: functional
[24] = test system: MDA-MB-231; experiment: Induction of cell cycle arrest in human MDA-MB-231 cells assessed as accumulation of cells at S phase at 10 uM incubated for 48 hrs by PI staining based flow cytometry (reference value: 12.56 to 14.76%); format: functional
[25] = test system: MDA-MB-231; experiment: Induction of apoptosis in human MDA-MB-231 cells assessed as viable cells at 5 uM incubated for 48 hrs by AnnexinV-FITC/PI staining based flow cytometry (reference value: 91.22 to 92.84%); format: functional; settings: read-out: Activity
[26] = test system: MDA-MB-231; experiment: Induction of apoptosis in human MDA-MB-231 cells assessed as viable cells at […] uM incubated for 48 hrs by AnnexinV-FITC/PI staining based flow cytometry (reference value: 91.22 to 92.84%); format: functional; settings: read-out: Activity
[27] = test system: MDA-MB-231; experiment: Induction of cell cycle arrest in human MDA-MB-231 cells assessed as accumulation of cells at G2/M phase at 1 uM incubated for 48 hrs by PI staining based flow cytometry (reference value: 29.42 to 32.08%); format: functional
[28] = test system: MDA-MB-231; experiment: Induction of apoptosis in human MDA-MB-231 cells assessed as late apoptotic cells at 10 uM incubated for 48 hrs by AnnexinV-FITC/PI staining based flow cytometry (reference value: 3.77 to 3.84%); format: functional
[29] = test system: MDA-MB-231; experiment: Inhibition of colony formation in human MDA-MB-231 cells at 0.5 to 10 uM incubated for 7 days by crystal violet staining based analysis; format: functional, cell-based; settings: dose 0.5-10 µM, time 7.0 day
[30] = test system: MDA-MB-231; experiment: Induction of cell cycle arrest in human MDA-MB-231 cells assessed as accumulation of cells at S phase at 2.5 uM incubated for 48 hrs by PI staining based flow cytometry (reference value: 12.56 to 14.76%); format: functional
[31] = test system: MDA-MB-231; experiment: Induction of cell cycle arrest in human MDA-MB-231 cells assessed as accumulation of cells at G0/G1 phase at 25 uM incubated for 48 hrs by PI staining based flow cytometry (reference value: 55.36 to 55.82%); format: functional
[32] = test system: MDA-MB-231; experiment: Induction of cell cycle arrest in human MDA-MB-231 cells assessed as accumulation of cells at S phase at 1 uM incubated for 48 hrs by PI staining based flow cytometry (reference value: 12.56 to 14.76%); format: functional
[33] = test system: MDA-MB-231; experiment: Induction of cell cycle arrest in human MDA-MB-231 cells assessed as accumulation of cells at G0/G1 phase at 2.5 uM incubated for 48 hrs by PI staining based flow cytometry (reference value: 55.36 to 55.82%); format: functional
[34] = test system: MDA-MB-231; experiment: Induction of cell cycle arrest in human MDA-MB-231 cells assessed as accumulation of cells at G2/M phase at 2.5 uM incubated for 48 hrs by PI staining based flow cytometry (reference value: 29.42 to 32.08%); format: functional
[35] = test system: MDA-MB-231; experiment: Induction of cell cycle arrest in human MDA-MB-231 cells assessed as accumulation of cells at G2/M phase at 25 uM incubated for 48 hrs by PI staining based flow cytometry (reference value: 29.42 to 32.08%); format: functional

Hepatocyte growth factor receptor, sequence (P08581 whole entry): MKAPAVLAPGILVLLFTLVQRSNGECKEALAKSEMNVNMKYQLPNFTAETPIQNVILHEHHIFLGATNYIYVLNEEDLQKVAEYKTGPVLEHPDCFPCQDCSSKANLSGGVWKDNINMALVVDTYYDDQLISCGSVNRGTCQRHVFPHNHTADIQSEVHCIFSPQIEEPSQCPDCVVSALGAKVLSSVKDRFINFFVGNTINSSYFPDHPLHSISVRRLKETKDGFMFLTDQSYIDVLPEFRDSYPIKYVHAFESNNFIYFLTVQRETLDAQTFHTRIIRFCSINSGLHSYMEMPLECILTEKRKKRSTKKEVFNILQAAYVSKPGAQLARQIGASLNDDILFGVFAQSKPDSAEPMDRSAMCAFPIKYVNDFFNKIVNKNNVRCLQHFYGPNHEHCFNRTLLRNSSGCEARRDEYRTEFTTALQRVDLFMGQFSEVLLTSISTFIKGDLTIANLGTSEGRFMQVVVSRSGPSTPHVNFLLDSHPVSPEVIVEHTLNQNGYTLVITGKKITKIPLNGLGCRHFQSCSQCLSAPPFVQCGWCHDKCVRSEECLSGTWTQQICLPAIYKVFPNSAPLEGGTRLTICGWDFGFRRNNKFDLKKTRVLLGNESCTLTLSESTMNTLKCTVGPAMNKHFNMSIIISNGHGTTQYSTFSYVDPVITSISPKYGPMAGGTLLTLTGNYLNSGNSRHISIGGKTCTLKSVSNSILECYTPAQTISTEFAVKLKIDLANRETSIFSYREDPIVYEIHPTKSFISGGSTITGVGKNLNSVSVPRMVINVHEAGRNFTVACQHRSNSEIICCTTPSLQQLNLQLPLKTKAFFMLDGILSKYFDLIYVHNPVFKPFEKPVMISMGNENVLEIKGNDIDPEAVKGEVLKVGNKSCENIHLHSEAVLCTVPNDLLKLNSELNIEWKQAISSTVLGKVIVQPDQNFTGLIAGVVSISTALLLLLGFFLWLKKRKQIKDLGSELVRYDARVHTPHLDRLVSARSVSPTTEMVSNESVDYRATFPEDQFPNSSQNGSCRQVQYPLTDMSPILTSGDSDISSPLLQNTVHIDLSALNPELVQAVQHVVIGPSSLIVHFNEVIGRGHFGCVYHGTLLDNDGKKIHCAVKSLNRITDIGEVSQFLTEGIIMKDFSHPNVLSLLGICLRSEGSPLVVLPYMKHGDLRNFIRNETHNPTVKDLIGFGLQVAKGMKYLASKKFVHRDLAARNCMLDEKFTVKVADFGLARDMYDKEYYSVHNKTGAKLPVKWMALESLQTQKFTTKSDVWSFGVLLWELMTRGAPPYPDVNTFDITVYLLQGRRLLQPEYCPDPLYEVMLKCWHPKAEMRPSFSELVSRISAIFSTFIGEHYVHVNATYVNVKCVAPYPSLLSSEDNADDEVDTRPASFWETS

IC50 [1]: 9.15 µM
IC50 [2]: 22.7 µM
IC50 [3]: 27.6 µM
Compound: CC(c1ccc2ncccc2c1)n1nnc2ncc(N3CCN(CCC(=O)Nc4ccc(F)cc4N)CC3)nc21 (stereo not drawn)

IC50 [1]: 2.62 µM
IC50 [2]: 4.9 µM
IC50 [3]: 4.69 µM
Compound: C[C@@H](Oc1cc(-c2cnn(C3CCNCC3)c2)cnc1N)c1c(Cl)ccc(F)c1Cl [CRIZOTINIB]

IC50 [1]: 4.11 µM
IC50 [2]: 5.91 µM
IC50 [3]: 6.28 µM
Compound: CC(c1ccc2ncccc2c1)n1nnc2ncc(N3CCN(Cc4ccc(C(=O)Nc5ccc(F)cc5N)cc4)CC3)nc21 (stereo not drawn)

IC50 [1]: 18.9 µM
IC50 [2]: 22.8 µM
IC50 [3]: 22.9 µM
Compound: CC(c1ccc2ncccc2c1)n1nnc2ncc(N3CCN(CCCC(=O)Nc4ccccc4N)CC3)nc21 (stereo not drawn)

IC50 [1]: 21.9 µM
IC50 [2]: 30.4 µM
IC50 [3]: 30.8 µM
Compound: CC(c1ccc2ncccc2c1)n1nnc2ncc(N3CCN(CCC(=O)Nc4ccccc4N)CC3)nc21 (stereo not drawn)

IC50 [1]: 3.48 µM
IC50 [2]: 1.72 µM
inhibition [4]: 2.6%
IC50 [3]: 0.63 µM
Compound: Nc1cc(F)ccc1NC(=O)c1ccc(CNC(=O)/C=C/c2cccnc2)cc1 [TUCIDINOSTAT]

IC50 [5]: 0.0549 µM
IC50 [1]: 1.25 µM
IC50 [2]: 1.63 µM
IC50 [3]: 3.88 µM
Compound: CC(c1ccc2ncccc2c1)n1nnc2ncc(N3CCN(Cc4ccc(/C=C/C(=O)Nc5ccc(F)cc5N)cc4)CC3)nc21 (stereo not drawn)
Activity [6]: 2.15%
viability at 10 µM [7]: 85.2%
Activity [8]: 8.25%
Activity [9]: 1.98%
Activity [10]: 15.22%
Activity [11]: 12.08%
Activity [12]: 7.16%
IC50 at 72 h [13]: > 25 µM
Activity [14]: 4.05%
Activity [15]: 2.65%
viability at 2.5 µM [16]: 87.4%
Activity [17]: 5.18%
Activity [18]: 3.22%
Activity [19]: 68.63%
Activity [20]: 2.21%
Activity [21]: 3.12%
Activity [22]: 2%
Activity [23]: 72.67%
Activity [24]: 12.11%
viability at 5 µM [25]: 87.1%
viability at 1.25 µM [26]: 88.8%
Activity [27]: 21.12%
Activity [28]: 9.5%
inhibition [29]: Dose-Dependent Effect
Activity [30]: 9.97%
Activity [31]: 74.44%
Activity [32]: 10.25%
Activity [33]: 71%
Activity [34]: 18.03%
Activity [35]: 13.48%
